Measured values taken from PMC8213057, “Targeting ALK2: An Open Science Approach to Developing Therapeutics for the Treatment of Diffuse Intrinsic Pontine Glioma” (Journal of Medicinal Chemistry, 2020).

Columns and labels:
CAMKK2 = CAMKK2 (Homo sapiens, UniProt Q96RR4); conditions: 1 μM; Run 1, Run 2
DRAK1/STK17A = biological target: T1, DRAK1/STK17A (Homo sapiens, UniProt Q9UEE5); conditions: 1 μM; Run 1, Run 2
T1 sequence (Q9UEE5 1-414): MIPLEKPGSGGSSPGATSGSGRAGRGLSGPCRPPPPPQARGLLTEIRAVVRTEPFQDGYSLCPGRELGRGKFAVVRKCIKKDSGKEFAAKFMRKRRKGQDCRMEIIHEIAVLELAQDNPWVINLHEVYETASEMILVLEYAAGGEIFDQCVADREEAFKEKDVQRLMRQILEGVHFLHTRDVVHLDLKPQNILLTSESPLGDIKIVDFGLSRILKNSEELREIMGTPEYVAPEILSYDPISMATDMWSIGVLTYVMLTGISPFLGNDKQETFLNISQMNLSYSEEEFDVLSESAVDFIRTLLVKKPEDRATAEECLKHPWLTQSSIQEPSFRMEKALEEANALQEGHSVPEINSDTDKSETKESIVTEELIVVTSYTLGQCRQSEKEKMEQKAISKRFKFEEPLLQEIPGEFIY

GCK/MAP4K2 = biological target: T2, GCK/MAP4K2 (Homo sapiens, UniProt Q12851); conditions: 1 μM; Run 1, Run 2
T2 sequence (Q12851 1-820): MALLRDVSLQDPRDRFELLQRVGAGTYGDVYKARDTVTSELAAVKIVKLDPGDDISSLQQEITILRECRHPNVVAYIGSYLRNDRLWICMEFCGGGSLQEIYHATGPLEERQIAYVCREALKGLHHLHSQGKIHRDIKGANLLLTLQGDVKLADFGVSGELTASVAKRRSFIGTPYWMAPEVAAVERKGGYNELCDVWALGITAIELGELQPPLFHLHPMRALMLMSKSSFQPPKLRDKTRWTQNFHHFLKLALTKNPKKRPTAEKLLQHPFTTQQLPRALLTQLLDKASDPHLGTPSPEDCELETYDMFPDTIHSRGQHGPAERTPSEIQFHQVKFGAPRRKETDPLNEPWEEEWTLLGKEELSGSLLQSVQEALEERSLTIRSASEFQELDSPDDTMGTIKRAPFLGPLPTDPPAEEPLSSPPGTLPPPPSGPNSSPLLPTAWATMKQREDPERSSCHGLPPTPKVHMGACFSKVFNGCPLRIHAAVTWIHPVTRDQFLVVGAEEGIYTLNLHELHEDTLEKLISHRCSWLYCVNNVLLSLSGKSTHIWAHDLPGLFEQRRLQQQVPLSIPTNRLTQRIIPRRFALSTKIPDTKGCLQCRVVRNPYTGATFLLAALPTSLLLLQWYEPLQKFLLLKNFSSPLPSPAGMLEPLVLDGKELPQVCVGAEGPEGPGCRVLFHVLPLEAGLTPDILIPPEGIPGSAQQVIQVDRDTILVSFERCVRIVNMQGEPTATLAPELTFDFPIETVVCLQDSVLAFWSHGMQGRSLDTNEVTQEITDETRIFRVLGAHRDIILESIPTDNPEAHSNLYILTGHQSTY

JNK1 = JNK1 (Homo sapiens, UniProt P45983); conditions: 1 μM; Run 1, Run 2
MYLK3 = biological target: T3, MYLK3 (Homo sapiens, UniProt Q32MK0); conditions: 1 μM; Run 1, Run 2
T3 sequence (Q32MK0 1-819): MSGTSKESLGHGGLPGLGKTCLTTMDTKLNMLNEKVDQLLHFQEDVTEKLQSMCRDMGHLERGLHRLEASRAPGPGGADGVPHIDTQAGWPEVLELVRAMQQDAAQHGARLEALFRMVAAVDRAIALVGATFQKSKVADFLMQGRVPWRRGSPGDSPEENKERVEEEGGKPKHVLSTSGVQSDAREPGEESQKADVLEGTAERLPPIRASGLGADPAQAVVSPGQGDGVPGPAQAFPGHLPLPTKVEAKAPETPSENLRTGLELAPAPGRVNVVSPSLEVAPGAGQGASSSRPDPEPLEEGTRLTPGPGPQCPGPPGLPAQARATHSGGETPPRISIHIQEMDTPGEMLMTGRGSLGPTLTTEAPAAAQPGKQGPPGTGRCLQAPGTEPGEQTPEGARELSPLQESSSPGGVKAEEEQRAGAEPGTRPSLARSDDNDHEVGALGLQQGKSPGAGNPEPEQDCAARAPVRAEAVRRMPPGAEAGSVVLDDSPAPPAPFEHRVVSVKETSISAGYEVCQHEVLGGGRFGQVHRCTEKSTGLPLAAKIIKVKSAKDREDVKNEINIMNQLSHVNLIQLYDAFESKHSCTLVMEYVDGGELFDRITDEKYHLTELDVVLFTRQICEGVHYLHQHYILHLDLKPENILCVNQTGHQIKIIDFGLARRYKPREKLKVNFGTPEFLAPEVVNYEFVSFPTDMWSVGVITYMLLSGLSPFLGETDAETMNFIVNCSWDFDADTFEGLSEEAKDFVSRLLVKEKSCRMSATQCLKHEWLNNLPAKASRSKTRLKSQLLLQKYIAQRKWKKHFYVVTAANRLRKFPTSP

TYK2 = TYK2 (Homo sapiens, UniProt P29597); conditions: 1 μM; Run 1, Run 2
CK1a1 = CK1a1 (Homo sapiens, UniProt P48729); assay: biochemical; conditions: read-out: % enzyme activity, 1 μM; Run 1, Run 2
GSK3b = GSK3b (Homo sapiens, UniProt P49841); assay: biochemical; conditions: read-out: % enzyme activity, 1 μM; Run 1, Run 2
LRRK2 = LRRK2 (Homo sapiens, UniProt Q5S007); assay: biochemical; conditions: read-out: % enzyme activity, 1 μM; Run 1, Run 2
LRRK2, sequence (Q5S007 whole entry): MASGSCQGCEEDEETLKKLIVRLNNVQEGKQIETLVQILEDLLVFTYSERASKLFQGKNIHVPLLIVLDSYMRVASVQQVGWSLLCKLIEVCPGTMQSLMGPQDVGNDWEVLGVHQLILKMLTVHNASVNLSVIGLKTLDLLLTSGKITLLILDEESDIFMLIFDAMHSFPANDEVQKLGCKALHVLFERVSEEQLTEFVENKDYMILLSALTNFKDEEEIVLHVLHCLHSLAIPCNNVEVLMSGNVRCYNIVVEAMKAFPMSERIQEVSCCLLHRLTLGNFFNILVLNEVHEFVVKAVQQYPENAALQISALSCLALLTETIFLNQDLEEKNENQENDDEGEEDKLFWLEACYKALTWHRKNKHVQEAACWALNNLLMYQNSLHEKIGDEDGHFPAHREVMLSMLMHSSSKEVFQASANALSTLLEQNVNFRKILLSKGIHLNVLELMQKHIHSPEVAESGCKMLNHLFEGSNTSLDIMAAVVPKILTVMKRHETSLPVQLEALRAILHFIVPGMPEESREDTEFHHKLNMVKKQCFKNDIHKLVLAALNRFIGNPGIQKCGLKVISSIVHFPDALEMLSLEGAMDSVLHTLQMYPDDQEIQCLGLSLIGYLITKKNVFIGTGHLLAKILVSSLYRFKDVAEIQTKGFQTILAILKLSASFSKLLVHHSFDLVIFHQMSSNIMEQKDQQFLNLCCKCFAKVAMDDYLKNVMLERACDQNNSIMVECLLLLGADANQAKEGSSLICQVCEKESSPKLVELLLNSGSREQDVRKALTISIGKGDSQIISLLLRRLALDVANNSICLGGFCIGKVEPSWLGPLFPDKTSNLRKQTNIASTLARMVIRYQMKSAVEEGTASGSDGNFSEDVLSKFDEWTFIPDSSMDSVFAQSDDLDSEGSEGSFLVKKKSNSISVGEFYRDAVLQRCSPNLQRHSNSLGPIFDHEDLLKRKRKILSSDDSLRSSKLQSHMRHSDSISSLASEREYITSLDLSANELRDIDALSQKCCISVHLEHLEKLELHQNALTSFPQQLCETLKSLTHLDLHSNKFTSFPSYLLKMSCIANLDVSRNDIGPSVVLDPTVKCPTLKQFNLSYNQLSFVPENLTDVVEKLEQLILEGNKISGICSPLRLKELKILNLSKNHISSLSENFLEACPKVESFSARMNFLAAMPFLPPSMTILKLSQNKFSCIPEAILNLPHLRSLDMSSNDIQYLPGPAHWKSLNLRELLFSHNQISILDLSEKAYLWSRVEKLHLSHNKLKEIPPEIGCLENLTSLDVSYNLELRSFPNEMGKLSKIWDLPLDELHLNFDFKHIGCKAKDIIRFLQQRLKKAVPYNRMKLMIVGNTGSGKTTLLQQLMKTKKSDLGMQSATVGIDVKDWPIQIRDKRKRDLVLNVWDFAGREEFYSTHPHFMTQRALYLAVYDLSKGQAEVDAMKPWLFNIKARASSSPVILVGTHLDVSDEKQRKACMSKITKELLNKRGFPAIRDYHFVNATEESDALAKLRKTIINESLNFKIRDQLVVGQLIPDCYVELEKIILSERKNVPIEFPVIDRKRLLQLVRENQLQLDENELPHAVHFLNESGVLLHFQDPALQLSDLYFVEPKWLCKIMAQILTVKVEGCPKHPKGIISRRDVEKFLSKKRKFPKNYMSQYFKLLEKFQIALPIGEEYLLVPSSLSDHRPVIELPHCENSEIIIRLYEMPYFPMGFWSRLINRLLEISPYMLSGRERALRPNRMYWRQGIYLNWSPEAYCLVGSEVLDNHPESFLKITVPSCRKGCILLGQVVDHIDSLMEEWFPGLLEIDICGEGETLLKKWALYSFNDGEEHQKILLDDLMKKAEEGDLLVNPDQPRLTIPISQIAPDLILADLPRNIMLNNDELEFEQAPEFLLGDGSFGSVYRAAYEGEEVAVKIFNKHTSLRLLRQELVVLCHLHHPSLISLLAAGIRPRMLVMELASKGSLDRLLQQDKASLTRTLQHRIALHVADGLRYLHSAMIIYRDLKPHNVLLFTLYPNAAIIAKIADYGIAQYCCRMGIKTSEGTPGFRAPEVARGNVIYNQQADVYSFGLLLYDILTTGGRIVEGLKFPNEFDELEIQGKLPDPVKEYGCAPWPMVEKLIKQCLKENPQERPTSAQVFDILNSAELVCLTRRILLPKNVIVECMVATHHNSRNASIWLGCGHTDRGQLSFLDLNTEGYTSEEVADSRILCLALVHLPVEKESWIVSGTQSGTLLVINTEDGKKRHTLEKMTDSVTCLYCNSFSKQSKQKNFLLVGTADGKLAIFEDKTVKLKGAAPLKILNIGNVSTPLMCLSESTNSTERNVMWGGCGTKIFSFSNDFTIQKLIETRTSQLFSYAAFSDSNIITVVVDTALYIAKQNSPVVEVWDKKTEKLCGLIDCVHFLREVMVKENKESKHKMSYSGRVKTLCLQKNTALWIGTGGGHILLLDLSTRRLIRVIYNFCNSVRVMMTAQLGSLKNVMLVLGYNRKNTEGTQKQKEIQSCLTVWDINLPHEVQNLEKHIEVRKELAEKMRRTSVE

TYK2, sequence (P29597 whole entry, species assumed): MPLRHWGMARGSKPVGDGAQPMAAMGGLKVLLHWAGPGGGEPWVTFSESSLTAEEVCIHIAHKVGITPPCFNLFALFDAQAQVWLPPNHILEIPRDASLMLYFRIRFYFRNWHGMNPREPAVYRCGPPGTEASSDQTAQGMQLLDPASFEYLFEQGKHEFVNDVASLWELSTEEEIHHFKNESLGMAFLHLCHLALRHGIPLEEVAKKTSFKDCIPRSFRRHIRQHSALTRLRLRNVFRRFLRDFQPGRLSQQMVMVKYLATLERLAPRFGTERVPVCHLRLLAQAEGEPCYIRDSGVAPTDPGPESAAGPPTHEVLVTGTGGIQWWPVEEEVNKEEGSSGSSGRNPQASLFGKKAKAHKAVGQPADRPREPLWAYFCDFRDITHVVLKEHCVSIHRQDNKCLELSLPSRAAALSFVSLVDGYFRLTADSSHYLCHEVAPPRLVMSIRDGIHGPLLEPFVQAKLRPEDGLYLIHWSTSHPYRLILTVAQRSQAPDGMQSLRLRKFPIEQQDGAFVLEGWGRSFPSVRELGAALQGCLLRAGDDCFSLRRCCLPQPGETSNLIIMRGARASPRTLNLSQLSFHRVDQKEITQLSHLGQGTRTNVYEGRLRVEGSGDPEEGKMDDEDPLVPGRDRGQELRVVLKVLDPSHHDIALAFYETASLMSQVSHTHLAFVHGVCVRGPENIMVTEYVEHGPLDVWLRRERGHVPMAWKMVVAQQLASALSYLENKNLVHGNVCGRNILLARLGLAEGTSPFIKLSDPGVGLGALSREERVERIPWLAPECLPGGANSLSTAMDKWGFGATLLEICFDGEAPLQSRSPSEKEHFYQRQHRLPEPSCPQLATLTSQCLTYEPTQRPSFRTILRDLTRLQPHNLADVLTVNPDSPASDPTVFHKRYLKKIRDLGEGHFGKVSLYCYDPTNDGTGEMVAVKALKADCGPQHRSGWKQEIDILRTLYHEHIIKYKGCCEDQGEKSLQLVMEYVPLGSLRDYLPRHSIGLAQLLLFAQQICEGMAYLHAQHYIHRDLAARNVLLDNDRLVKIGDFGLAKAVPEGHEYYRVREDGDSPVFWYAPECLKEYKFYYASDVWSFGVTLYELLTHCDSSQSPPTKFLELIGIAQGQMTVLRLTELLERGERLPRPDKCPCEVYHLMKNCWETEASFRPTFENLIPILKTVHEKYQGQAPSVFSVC
GSK3b, sequence (P49841 whole entry): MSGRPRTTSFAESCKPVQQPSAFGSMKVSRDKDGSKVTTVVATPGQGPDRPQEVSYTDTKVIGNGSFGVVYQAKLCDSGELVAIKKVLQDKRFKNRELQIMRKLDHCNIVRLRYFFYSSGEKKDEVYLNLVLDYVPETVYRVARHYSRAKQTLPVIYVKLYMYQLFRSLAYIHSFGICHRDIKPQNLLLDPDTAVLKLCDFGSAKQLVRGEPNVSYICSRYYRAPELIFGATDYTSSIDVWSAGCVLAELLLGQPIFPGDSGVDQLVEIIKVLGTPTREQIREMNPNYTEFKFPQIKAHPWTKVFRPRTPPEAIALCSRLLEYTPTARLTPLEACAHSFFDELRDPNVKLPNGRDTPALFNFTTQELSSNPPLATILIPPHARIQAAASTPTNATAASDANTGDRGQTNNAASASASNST
CAMKK2, sequence (Q96RR4 whole entry): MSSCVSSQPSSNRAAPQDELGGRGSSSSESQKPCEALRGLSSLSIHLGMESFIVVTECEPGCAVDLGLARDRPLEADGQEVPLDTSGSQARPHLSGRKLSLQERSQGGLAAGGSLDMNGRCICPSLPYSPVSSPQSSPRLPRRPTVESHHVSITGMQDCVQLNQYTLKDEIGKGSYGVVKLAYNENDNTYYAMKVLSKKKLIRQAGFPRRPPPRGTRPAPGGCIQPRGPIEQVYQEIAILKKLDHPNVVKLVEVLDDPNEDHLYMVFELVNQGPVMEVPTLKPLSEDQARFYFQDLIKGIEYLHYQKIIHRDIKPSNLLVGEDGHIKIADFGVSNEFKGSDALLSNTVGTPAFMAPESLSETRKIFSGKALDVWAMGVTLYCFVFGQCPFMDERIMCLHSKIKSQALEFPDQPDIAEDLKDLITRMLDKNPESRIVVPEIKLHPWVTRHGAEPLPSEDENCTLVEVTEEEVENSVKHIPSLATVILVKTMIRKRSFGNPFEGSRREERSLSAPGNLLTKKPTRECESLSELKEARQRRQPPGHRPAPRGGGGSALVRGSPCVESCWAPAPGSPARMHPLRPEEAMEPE
CK1a1, sequence (P48729 whole entry): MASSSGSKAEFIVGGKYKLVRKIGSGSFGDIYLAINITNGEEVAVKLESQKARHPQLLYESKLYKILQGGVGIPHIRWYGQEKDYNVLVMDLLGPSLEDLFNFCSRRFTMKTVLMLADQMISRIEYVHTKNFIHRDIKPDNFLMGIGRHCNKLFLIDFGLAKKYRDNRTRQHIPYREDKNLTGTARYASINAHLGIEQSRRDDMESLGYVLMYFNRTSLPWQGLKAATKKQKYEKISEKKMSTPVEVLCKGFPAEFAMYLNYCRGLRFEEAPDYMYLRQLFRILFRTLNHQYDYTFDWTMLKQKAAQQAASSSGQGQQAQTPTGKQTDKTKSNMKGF

## COc1cc(-c2cncc(-c3ccc(N4C[C@@H](C)N(C)[C@@H](C)C4)cc3)c2C)cc(F)c1C(N)=O [Compound 26c, 2-Fluoro-6-methoxy-4-(4-methyl-5-(4-((3R,5S)-3,4,5-trimethylpiperazin-1-yl)phenyl)pyridin-3-yl)benzamide]
CAMKK2
  % enzyme activity: 75.78%
DRAK1/STK17A
  % enzyme activity: 95.69%
GCK/MAP4K2
  % enzyme activity: 74.91%
JNK1
  % enzyme activity: 85.74%
MYLK3
  % enzyme activity: 99.34%
TYK2
  % enzyme activity: 99.47%
CK1a1
  remaining activity at 1 µM: 100%
GSK3b
  remaining activity at 1 µM: 88.8%
LRRK2
  remaining activity at 1 µM: 78.3%

## COc1cc(-c2cncc(-c3ccc(N4CCN(C)CC4)cc3)c2C)cc(F)c1C(N)=O [Compound 26a, 2-Fluoro-6-methoxy-4-(4-methyl-5-(4-(4-methylpiperazin-1-yl)phenyl)pyridin-3-yl)benzamide]
CAMKK2
  % enzyme activity: 70.52%
DRAK1/STK17A
  % enzyme activity: 95.60%
GCK/MAP4K2
  % enzyme activity: 59.95%
JNK1
  % enzyme activity: 88.65%
MYLK3
  % enzyme activity: 98.90%
TYK2
  % enzyme activity: 91.37%
CK1a1
  remaining activity at 1 µM: 96.1%
GSK3b
  remaining activity at 1 µM: 88.5%
LRRK2
  remaining activity at 1 µM: 60.1%
